target: GST-Xa-hAAK1 (Homo sapiens (Human), UniProt Q2M2I8); experiment: AAK1 Kinase Assay; type: biochemical; conditions: ATP 22 μM; 3 hours at room temperature
Sequence (Q2M2I8 whole entry): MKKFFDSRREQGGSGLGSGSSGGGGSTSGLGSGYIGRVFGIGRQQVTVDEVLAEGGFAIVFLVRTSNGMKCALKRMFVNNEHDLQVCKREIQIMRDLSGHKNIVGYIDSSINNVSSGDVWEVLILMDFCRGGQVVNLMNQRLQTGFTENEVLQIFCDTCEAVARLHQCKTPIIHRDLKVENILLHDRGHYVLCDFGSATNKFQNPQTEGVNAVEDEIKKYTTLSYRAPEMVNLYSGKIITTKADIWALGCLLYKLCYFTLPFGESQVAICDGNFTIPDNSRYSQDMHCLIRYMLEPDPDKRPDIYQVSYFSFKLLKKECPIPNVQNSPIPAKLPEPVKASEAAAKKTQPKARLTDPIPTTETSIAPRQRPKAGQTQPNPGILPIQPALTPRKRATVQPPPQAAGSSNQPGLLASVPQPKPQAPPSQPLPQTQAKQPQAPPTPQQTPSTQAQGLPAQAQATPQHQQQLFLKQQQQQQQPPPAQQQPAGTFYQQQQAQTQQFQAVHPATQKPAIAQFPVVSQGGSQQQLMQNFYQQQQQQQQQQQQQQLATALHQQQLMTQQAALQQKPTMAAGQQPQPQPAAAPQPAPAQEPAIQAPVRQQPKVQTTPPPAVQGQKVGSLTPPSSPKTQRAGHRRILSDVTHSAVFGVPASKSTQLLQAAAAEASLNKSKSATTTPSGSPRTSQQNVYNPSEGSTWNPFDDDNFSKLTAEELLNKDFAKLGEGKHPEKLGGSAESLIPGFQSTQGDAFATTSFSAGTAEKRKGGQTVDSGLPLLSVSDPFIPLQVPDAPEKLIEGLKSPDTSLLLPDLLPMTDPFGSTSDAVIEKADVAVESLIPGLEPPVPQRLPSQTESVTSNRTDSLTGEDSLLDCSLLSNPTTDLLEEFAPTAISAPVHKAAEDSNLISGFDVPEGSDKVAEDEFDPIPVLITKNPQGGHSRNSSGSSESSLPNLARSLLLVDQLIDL

Structure (SMILES)	IC50 [nM]
CC(C)(CO)c1nc(-c2cccc(Nc3ncnn4cccc34)c2)no1 [Example 81, 2-methyl-2-(3-(3-(pyrrolo[2,1-f][1,2,4]triazin-4-ylamino)phenyl)-1,2,4-oxadiazol-5-yl)propan-1-ol]	413
CC(C)(CN)c1nc(-c2cccc(Nc3ncnn4cccc34)c2)no1 [Example 82, N-(3-(5-(1-amino-2-methylpropan-2-yl)-1,2,4-oxadiazol-3-yl)phenyl)pyrrolo[2,1-f][1,2,4]triazin-4-amine]	67
CC(C)n1nnc(-c2cc(CO)cc(Nc3ncnn4cccc34)c2)n1 [Example 83, (3-(2-isopropyl-2H-tetrazol-5-yl)-5-(pyrrolo[2,1-f][1,2,4]triazin-4-ylamino)phenyl)methanol]	406
CC(C)n1nnc(-c2cc(O)cc(Nc3ncnn4cccc34)c2)n1 [Example 84, 3-(2-isopropyl-2H-tetrazol-5-yl)-5-(pyrrolo[2,1-f][1,2,4]triazin-4-ylamino)phenol]	75
CC(C)c1nc(-c2cc(O)cc(Nc3ncnn4cccc34)c2)no1 [Example 85, 3-(5-isopropyl-1,2,4-oxadiazol-3-yl)-5-(pyrrolo[2,1-f][1,2,4]triazin-4-ylamino)phenol]	82
Cc1ccn2ncnc(Nc3cccc(-c4noc(C(C)C)n4)c3)c12 [Example 86]	123
Cc1ccn2ncnc(Nc3cccc(-c4nnc(C(C)C)s4)c3)c12 [Example 87, N-(3-(5-isopropyl-1,3,4-thiadiazol-2-yl)phenyl)-5-methylpyrrolo[2,1-f][1,2,4]triazin-4-amine]	325
Cc1ccn2ncnc(Nc3cccc(-c4nnn(C(C)C)n4)c3)c12 [Example 88, N-(3-(2-isopropyl-2H-tetrazol-5-yl)phenyl)-5-methylpyrrolo[2,1-f][1,2,4]triazin-4-amine]	22
Cc1ccn2ncnc(Nc3cccc(-c4noc(C(C)(C)CO)n4)c3)c12 [Example 89, 2-methyl-2-(3-(3-(5-methylpyrrolo[1,2-f][1,2,4]triazin-4-ylamino)phenyl)-1,2,4-oxadiazol-5-yl)propan-1-ol]	207
Cc1ccn2ncnc(Nc3cccc(-c4noc(C(C)(C)CCl)n4)c3)c12 [Example 90, N-(3-(5-(1-chloro-2-methylpropan-2-yl)-1,2,4-oxadiazol-3-yl)phenyl)-5-methylpyrrolo[2,1-f][1,2,4]triazin-4-amine]	52
Cc1ccn2ncnc(Nc3cccc(-c4noc(C(C)(C)CN)n4)c3)c12 [Example 91, N-(3-(5-(1-amino-2-methylpropan-2-yl)-1,2,4-oxadiazol-3-yl)phenyl)-5-methylpyrrolo[2,1-f][1,2,4]triazin-4-amine]	63
COc1cc(Nc2ncnn3ccc(C)c23)cc(-c2noc(C(C)C)n2)c1 [Example 92, N-(3-(5-isopropyl-1,2,4-oxadiazol-3-yl)-5-methoxyphenyl)-5-methylpyrrolo[2,1-f][1,2,4]triazin-4-amine]	1170
Cc1ccn2ncnc(Nc3cc(O)cc(-c4noc(C(C)C)n4)c3)c12 [Example 93, 3-(5-isopropyl-1,2,4-oxadiazol-3-yl)-5-((5-methylpyrrolo[2,1-f][1,2,4]triazin-4-yl)amino)phenol]	73
CCOC(=O)c1ccn2ncnc(Nc3cccc(-c4nnc(C(C)C)s4)c3)c12 [Example 94, ethyl 4-((3-(5-isopropyl-1,3,4-thiadiazol-2-yl)phenyl)amino)pyrrolo[2,1-f][1,2,4]triazine-5-carboxylate]	474
CCOC(=O)c1ccn2ncnc(Nc3cc(O)cc(-c4nnn(C(C)C)n4)c3)c12 [Example 95, ethyl 4-((3-hydroxy-5-(2-isopropyl-2H-tetrazol-5-yl)phenyl)amino)pyrrolo[2,1-f][1,2,4]triazine-5-carboxylate]	2530
CCOC(=O)c1ccn2ncnc(Nc3cccc(-c4nnn(C(C)C)n4)c3)c12 [Example 96, ethyl 4-((3-(2-isopropyl-2H-tetrazol-5-yl)phenyl)amino)pyrrolo[2,1-f][1,2,4]triazine-5-carboxylate]	624

Structure (SMILES)	IC50 [nM]
CCOC(=O)c1ccn2ncnc(Nc3cccc(-c4noc(C(C)C)n4)c3)c12 [Example 97, ethyl 4-((3-(5-isopropyl-1,2,4-oxadiazol-3-yl)phenyl)amino)pyrrolo[2,1-f][1,2,4]triazine-5-carboxylate]	883
CC(C)n1nnc(-c2cccc(Nc3ncnn4ccc(CO)c34)c2)n1 [Example 98, (4-((3-(2-isopropyl-2H-tetrazol-5-yl)phenyl)amino)pyrrolo[2,1-f][1,2,4]triazin-5-yl)methanol]	92
CC(C)n1nnc(-c2cccc(Nc3ncnn4ccc(CN)c34)c2)n1 [Example 99, 5-(aminomethyl)-N-(3-(2-isopropyl-2H-tetrazol-5-yl)phenyl)pyrrolo[2,1-f][1,2,4]triazin-4-amine]	217
COCc1ccn2ncnc(Nc3cccc(-c4nnn(C(C)C)n4)c3)c12 [Example 100, N-(3-(2-isopropyl-2H-tetrazol-5-yl)phenyl)-5-(methoxymethyl)pyrrolo[2,1-f][1,2,4]triazin-4-amine]	54
CC(C)n1nnc(-c2cccc(Nc3ncnn4ccc(C(=O)N(C)C)c34)c2)n1 [Example 101, 4-((3-(2-isopropyl-2H-tetrazol-5-yl)phenyl)amino)-N,N-dimethylpyrrolo[2,1-f][1,2,4]triazine-5-carboxamide]	687
CC(C)n1nnc(-c2cccc(Nc3ncnn4ccc(CN(C)C)c34)c2)n1 [Example 102, 5-((dimethylamino)methyl)-N-(3-(2-isopropyl-2H-tetrazol-5-yl)phenyl)pyrrolo[2,1-f][1,2,4]triazin-4-amine]	49
CNC(=O)c1ccn2ncnc(Nc3cccc(-c4nnn(C(C)C)n4)c3)c12 [Example 103, 4-((3-(2-isopropyl-2H-tetrazol-5-yl)phenyl)amino)-N-methylpyrrolo[2,1-f][1,2,4]triazine-5-carboxamide]	26
CCNC(=O)c1ccn2ncnc(Nc3cccc(-c4nnn(C(C)C)n4)c3)c12 [Example 104, N-ethyl-4-((3-(2-isopropyl-2H-tetrazol-5-yl)phenyl)amino)pyrrolo[2,1-f][1,2,4]triazine-5-carboxamide]	195
CC(C)n1nnc(-c2cccc(Nc3ncnn4ccc(C(=O)NCC5CC5)c34)c2)n1 [Example 105, N-(cyclopropylmethyl)-4-((3-(2-isopropyl-2H-tetrazol-5-yl)phenyl)amino)pyrrolo[2,1-f][1,2,4]triazine-5-carboxamide]	785
CC(C)NC(=O)c1ccn2ncnc(Nc3cccc(-c4nnn(C(C)C)n4)c3)c12 [Example 106, N-isopropyl-4-((3-(2-isopropyl-2H-tetrazol-5-yl)phenyl)amino)pyrrolo[2,1-f][1,2,4]triazine-5-carboxamide]	2350
CC(C)n1nnc(-c2cccc(Nc3ncnn4ccc(C(=O)NCC#N)c34)c2)n1 [Example 107, N-(cyanomethyl)-4-((3-(2-isopropyl-2H-tetrazol-5-yl)phenyl)amino)pyrrolo[2,1-f][1,2,4]triazine-5-carboxamide]	469
COCCNC(=O)c1ccn2ncnc(Nc3cccc(-c4nnn(C(C)C)n4)c3)c12 [Example 108, 4-((3-(2-isopropyl-2H-tetrazol-5-yl)phenyl)amino)-N-(2-methoxyethyl)pyrrolo[2,1-f][1,2,4]triazine-5-carboxamide]	289
CC(C)n1nnc(-c2cccc(Nc3ncnn4ccc(C(=O)N5CCC(N)CC5)c34)c2)n1 [Example 109, (4-aminopiperidin-1-yl)(4-((3-(2-isopropyl-2H-tetrazol-5-yl)phenyl)amino)pyrrolo[2,1-f][1,2,4]triazin-5-yl)methanone]	4770
CC(C)C[C@@H](N)C(=O)Nc1cccc(Nc2ncnn3ccc(C(=O)N4CCC(N)CC4)c23)c1 [Example 110, (R)-2-amino-N-(3-((5-(4-aminopiperidine-1-carbonyl)pyrrolo[2,1-f][1,2,4]triazin-4-yl)amino)phenyl)-4-methylpentanamide]	7710
COC(=O)c1cn2ncnc(Nc3cccc(-c4nnn(C(C)C)n4)c3)c2c1CN1CCC(N)CC1 [Example 111, methyl 5-((4-aminopiperidin-1-yl)methyl)-4-((3-(2-isopropyl-2H-tetrazol-5-yl)phenyl)amino)pyrrolo[2,1-f][1,2,4]triazine-6-carboxylate]	16

system: mice (pain response, formalin paw test); experiment: formalin paw test; type: in vivo, mouse; conditions: 60 mg/kg sc; % response relative to gabapentin 200 mg/kg
Procedure: AAK1 homozygous (−/−) and their wild-type (+/+) littermates were tested using the formalin paw test in order to assess their acute and tonic nociceptive responses. For these tests, Automatic Nociception Analyzers (purchased from the Ozaki lab at University of California, San Diego) were used. A metal band was placed around the left hind paw of each mouse 30 minutes prior to testing. After the 30-minute acclimation period, 20 μl of 5% formalin is subcutaneously injected in the dorsal surface of the left hind paw. Mice were individually housed in cylindrical chambers for 45 minutes. Fresh 5% formalin solution was prepared by diluting formaldehyde (Formalde-fresh 20%, Fisher Scientific, Fair Lawn, N.J.) with distilled water. Investigatory compounds were administered 30 minutes prior to formalin injection.
A computer recorded flinches per minute, total flinches for phase I (acute phase=first 8 minutes), and total flinches for phase II (tonic phase=time between minutes 20-40 or 10-60 minutes for drug studies) through an electromagnetic field. See Yaksh T L, Ozaki G, McCumber D, Rathbun M, Svensson C, Malkmus S, Yaksh M C. An automated flinch detecting system for use in the formalin nociceptive bioassay. J Appl Physiol., 2001; 90:2386-402.
The same test was used to confirm that the administration of an AAK1 inhibitor can also affect pain response. […]

Structure (SMILES)	Response [%]
CC(C)c1nc(-c2cccc(NC(=O)c3cnc4ccc(NC5CCC(N)CC5)nn34)c2)no1 [6-(((1R,4R)-4-aminocyclohexyl)amino)-N-(3-(5-isopropyl-1,2,4-oxadiazol-3-yl)phenyl)imidazo[1,2-b]pyridazine-3-carboxamide]	59

same assay, conditions: 200 mg/kg sc; % response relative to gabapentin 200 mg/kg

Structure (SMILES)	Response [%]
NCC1(CC(=O)O)CCCCC1 [Gabapentin, reference compound]	73

From US9737542B2, “Pyrrolotriazine kinase inhibitors” (BRISTOL-MYERS SQUIBB COMPANY, priority 2013, dated 2017)
